Measured values as given in PubChem BioAssay (NCI).
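Interpolation was linear, between the two tested concentrations surrounding the appropriate level; five concentrations were tested over 48 hours in 96-well plates. The concentration for 50% growth inhibition is given as GI50. TGI marks complete inhibition of growth.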

Experiments:
Assay in all cases: NCI-60 cell line screen, 48 h
[1] = test system: NCI-H23 lung
[2] = test system: NCI-H522 lung
[3] = test system: SF-539 CNS
[4] = test system: DU-145 prostate
[5] = test system: HS 578T breast
[6] = test system: HL-60(TB) leukemia
[7] = test system: A549 NSCLC
[8] = test system: HOP-62 NSCLC
[9] = test system: SNB-75 CNS
[10] = test system: SNB-19 CNS

| Compound | GI50 [1] [µM] | TGI [1] [µM] | GI50 [2] [µM] | TGI [2] [µM] | GI50 [3] [µM] | TGI [3] [µM] | GI50 [4] [µM] | TGI [4] [µM] | GI50 [5] [µM] | TGI [5] [µM] | GI50 [6] [µM] | TGI [6] [µM] | GI50 [7] [µM] | TGI [7] [µM] | GI50 [8] [µM] | TGI [8] [µM] | GI50 [9] [µM] | TGI [9] [µM] | GI50 [10] [µM] | TGI [10] [µM] |
| --- | --- | --- | --- | --- | --- | --- | --- | --- | --- | --- | --- | --- | --- | --- | --- | --- | --- | --- | --- | --- |
| COc1ncc(-c2ccc3ncnc(Nc4cccc(Cl)c4)c3c2)cc1NS(C)(=O)=O | 1.62 | 8.69 | 2.14 | 18.4 | 2.09 | 9.92 | 0.756 | 21.1 | 0.852 | 9.52 | 0.848 | 16.4 | 1.2 | 13.2 | 1.53 | 42.4 | 0.158 | 5.82 | 3.19 | 31.3 |
| COc1ccc2c(ccc3oc([N+](=O)[O-])cc32)c1 | 0.203 | 0.605 | 0.0952 | 0.319 | 0.225 | 0.595 | 0.191 | 1.14 | 0.301 | 1.58 | 0.0514 | 0.487 | 0.274 | 1.04 | 0.412 | 2.48 | 0.201 | 0.573 | 0.294 | 2.96 |
| COc1cc(-c2cn(-c3ccc(F)cc3)c(=O)[nH]2)cc(OC)c1OC | > 100 | > 100 | > 100 | > 100 | > 100 | > 100 | > 100 | > 100 | 50.9 | > 100 | > 100 | > 100 | > 100 | > 100 | 45 | > 100 | 55.6 | > 100 | > 100 | > 100 |
| COC(=O)C[C@@H]1CC=CC(=O)/C1=C(O)/C=C/c1ccccc1 | 0.7 | 2.13 | 0.32 | 0.959 | 0.433 | 7.15 | 0.695 | 1.96 | 3.49 | > 49.2 | 1.24 | 4.31 | 4.23 | 22 | 0.56 | 1.86 | 1.05 | 3.21 | 1.57 | 4.84 |
| Nc1n[nH]c2cc(F)c([C@@H]3Nc4c(F)cc5[nH]ncc5c4[C@H]4C5CCC(C5)[C@@H]34)cc12 (stereo not given in full) | 0.158 | 5.76 | 0.0932 | 2.22 | 0.0792 | 0.23 | 0.157 | 7.97 | 0.117 | 2.95 | 0.1 | 0.317 | 0.134 | 13.9 | 0.195 | 6.46 | 0.0894 | 0.635 | 0.134 | 14.9 |
| COc1ccc2cn3c4ccc(O)cc4[nH]c(=O)c3c2c1 | 0.402 | 15.7 | 0.031 | 1.05 | 0.104 | 12.5 | 0.298 | 15.5 | 0.249 | 31.6 | 0.111 | 13 | 0.231 | 18.1 | 0.0864 | 17.3 | 0.162 | 18.5 | 0.206 | 18.7 |
| COc1ccccc1C(=O)Nc1ccc(Cl)c(C(=O)OC(C)C)c1 | – | 28.1 | – | > 81.4 | – | > 100 | – | > 100 | – | > 100 | – | > 65.2 | – | > 100 | – | > 100 | – | > 100 | – | > 100 |
| COc1ccc(OC)c(-c2nc3sc(C)cn3c2/C=C2\C(=O)N(C)c3ccccc32)c1 | 24.4 | 59.3 | 22 | 59.4 | 21.8 | 42.5 | 29.2 | 81.8 | 23.6 | 70.4 | 11.5 | 31.6 | 28.4 | > 100 | 22.5 | 61.4 | 17.9 | 47.9 | 26.4 | 94.7 |
| COc1ccccc1CNC(=O)/C=C/c1ccc(O)c(O)c1 | 77.6 | > 100 | 22.7 | > 100 | 22.2 | 65.9 | 82.4 | > 100 | > 100 | > 100 | 45.2 | > 100 | 64.3 | > 100 | 61.9 | > 100 | 86.5 | > 100 | 48.2 | > 100 |
| C=C(C)[C@@H]1CC[C@]2(COC(=O)c3ccccc3C(=O)O)CC[C@]3(C)[C@H](CC[C@@H]4[C@@]5(C)CC[C@H](OC(=O)c6ccccc6C(=O)O)C(C)(C)[C@@H]5CC[C@]43C)[C@@H]12 | 42.7 | > 100 | 22.8 | 96.9 | 36.3 | > 100 | 32.8 | > 100 | 26.4 | > 100 | > 100 | > 100 | 29.8 | > 100 | 21.8 | 54.2 | 15.4 | 36 | 23.2 | > 100 |
